Data reported in US4200635A, “Antibacterially active amides” (Beecham Group Limited, priority 1977, dated 1980).
In brackets after ≈: the same amount, converted by molar mass. Like-named read-outs stand apart in the source and are kept apart here.

How the values were obtained:
[1] = test system: Haemophilus influenzae Q1; test: MIC, serial dilution in nutrient agar, human bacteria; type: cell-based; details: nutrient agar containing 5% chocolated horse blood
[2] = test system: Haemophilus influenzae Wy21; test: as above; type: cell-based
M. fermentans MWKL4 = test: in vitro MIC, anti-mycoplasmal activity; type: cell-based; details: Mycoplasmopsis fermentans, Friis' broth, microtiter method
Text: (§1) Tables 3 and 4 show the in vitro MIC values (μg/ml) of the compounds of Examples 1 to 9 against a number of mycoplasma organisms, determined in Friis' broth using the microtiter method.

[3] = test system: M. suipneumoniae J2206/183b; test: in vitro MIC, anti-mycoplasmal activity; type: cell-based; details: Mesomycoplasma hyopneumoniae, Friis' broth, microtiter method
Text: as §1

M. pulmonis JB = test: in vitro MIC, anti-mycoplasmal activity; type: cell-based; details: Mycoplasmopsis pulmonis, Friis' broth, microtiter method
Text: as §1

M. dispar NCTC 10125 = test: in vitro MIC, anti-mycoplasmal activity; type: cell-based; details: Friis' broth, microtiter method
Text: as §1

Staph. aureus Russell = test: MIC, serial dilution in nutrient agar, human bacteria; type: cell-based; details: Staphylococcus aureus; Staph. aureus Russell; nutrient agar containing 5% chocolated horse blood; read-out: M.I.C.
[4] = test system: Strep. dysgalactiae SPD 1; test: MIC, veterinary bacteria; type: cell-based; details: Streptococcus dysgalactiae, SPD1; Strep. dysgalactiae SPD 1; read-out: M.I.C.
Strep. pneumoniae CN33 = test: MIC, serial dilution in nutrient agar, human bacteria; type: cell-based; details: Streptococcus pneumoniae
Staph. aureus 152 = test: MIC, veterinary bacteria; type: cell-based; details: Staphylococcus aureus
Staph. aureus B4 = test: MIC, veterinary bacteria; type: cell-based; details: Staphylococcus aureus; Staph. aureus B4; read-out: M.I.C.
Past. haemolytica PA5 = test: MIC, veterinary bacteria; type: cell-based; details: Mannheimia haemolytica; Past. haemolytica PA5; read-out: M.I.C.
Bord. bronchiseptica BO9 = test: MIC, veterinary bacteria; type: cell-based; details: Bordetella bronchiseptica
M. pneumoniae 427a = test: in vitro MIC, anti-mycoplasmal activity; type: cell-based; details: Mycoplasmoides pneumoniae, Friis' broth, microtiter method
Strep. uberis SPU 1 = test: MIC, veterinary bacteria; type: cell-based; details: Streptococcus uberis, SPU1; Strep. uberis SPU 1; read-out: M.I.C.
Bacillus subtilis 6633 = test: MIC, serial dilution in nutrient agar, human bacteria; type: cell-based
Past. multocida PAI = test: MIC, veterinary bacteria; type: cell-based; details: Pasteurella multocida
Staph. aureus Oxford = test: MIC, serial dilution in nutrient agar, human bacteria; type: cell-based; details: Staphylococcus aureus; Staph. aureus Oxford; nutrient agar containing 5% chocolated horse blood; read-out: M.I.C.
[5] = test system: Pasteurella multocida 1633; test: as above; type: cell-based; details: nutrient agar containing 5% chocolated horse blood
[6] = test system: Neisseria flavescens 8263; test: as above; type: cell-based; details: nutrient agar containing 5% chocolated horse blood
M. pneumoniae ATCC 15492 = test: in vitro MIC, anti-mycoplasmal activity; type: cell-based; details: Mycoplasmoides pneumoniae, ATCC15492, Friis' broth, microtiter method
Text: as §1

M. dispar H225 = test: in vitro MIC, anti-mycoplasmal activity; type: cell-based
Text: as §1

M. suipneumoniae Str. 11 = test: in vitro MIC, anti-mycoplasmal activity; type: cell-based; details: Mesomycoplasma hyopneumoniae, Friis' broth, microtiter method
[7] = test system: Neisseria catarrhalis 1502; test: MIC, serial dilution in nutrient agar, human bacteria; type: cell-based
Mouse blood levels = type: in vivo, male albino mice, CS1 strain
Experimental: The blood levels of the 5-ethoxycarbonylpentyl amide of monic acid A were measured after subcutaneous dosing to male albino mice.
Species: Albino male mice 18-22 g CS1 strain.
Routes: Subcutaneous and oral.
Dose: 50 mg/kg. This compound was supplied as an oil. It was administered as a solution in 10% DMF v/v in PBS or water.
Assay: Neisseria catarrhalis, immediate assay of samples.

[8] = Haemophilus influenzae Wy21, nutrient agar containing 5% chocolated horse blood, read-out: M.I.C.
[9] = Bacillus subtilis 6633, nutrient agar containing 5% chocolated horse blood, read-out: M.I.C.
[10] = Past. multocida PAI, read-out: M.I.C.
[11] = Strep. pneumoniae CN33, nutrient agar containing 5% chocolated horse blood, read-out: M.I.C.
[12] = M. dispar H225, Friis' broth, microtiter method, read-out: M.I.C.
[13] = Neisseria catarrhalis 1502, nutrient agar containing 5% chocolated horse blood, read-out: M.I.C.
[14] = Bord. bronchiseptica BO9, read-out: M.I.C.

CC(=CC(N)=O)CC1OCC(CC2OC2C(C)C(C)O)C(O)C1O (centres unmarked) [Example 1, Primary amide of monic acid A]
MIC [1]: 5 µg/mL (≈ 14.6 µM)
MIC [2, 8]: 10 µg/mL (≈ 29.1 µM)
MIC (M. fermentans MWKL4): 15.6 µg/mL (≈ 45.4 µM)
MIC [3]: 7.8 µg/mL (≈ 22.7 µM)
MIC (M. pulmonis JB): 15.6 µg/mL (≈ 45.4 µM)
MIC (M. dispar NCTC 10125): 1.9 µg/mL (≈ 5.53 µM)
MIC (Staph. aureus Russell): 100 µg/mL (≈ 291 µM)
MIC [4]: 20 µg/mL (≈ 58.2 µM)
MIC (Strep. pneumoniae CN33; CN33): 100 µg/mL (≈ 291 µM)
MIC (Staph. aureus 152): > 80 µg/mL
MIC (Staph. aureus B4): > 80 µg/mL
MIC (Past. haemolytica PA5): 40 µg/mL (≈ 116 µM)
MIC (Bord. bronchiseptica BO9; BO9): 40 µg/mL (≈ 116 µM)
MIC (M. pneumoniae 427a): 250 µg/mL (≈ 728 µM)
MIC (Strep. uberis SPU 1): 20 µg/mL (≈ 58.2 µM)
MIC (Bacillus subtilis 6633; [9]): 100 µg/mL (≈ 291 µM)
MIC (Past. multocida PAI; [10]): 40 µg/mL (≈ 116 µM)
MIC (Staph. aureus Oxford): 50 µg/mL (≈ 146 µM)
MIC [5]: 10 µg/mL (≈ 29.1 µM)
MIC [6]: 2.5 µg/mL (≈ 7.28 µM)

CNC(=O)C=C(C)CC1OCC(CC2OC2C(C)C(C)O)C(O)C1O (centres unmarked) [Example 2, N-Methylamide of monic acid A]
MIC [1]: 0.2 µg/mL (≈ 0.56 µM)
MIC (M. fermentans MWKL4): 7.8 µg/mL (≈ 21.8 µM)
MIC [3]: < 0.5 µg/mL
MIC (M. pulmonis JB): 1 µg/mL (≈ 2.8 µM)
MIC (M. dispar NCTC 10125): < 0.5 µg/mL
MIC (Staph. aureus Russell): 25 µg/mL (≈ 69.9 µM)
MIC (Strep. pneumoniae CN33; [11]): 25 µg/mL (≈ 69.9 µM)
MIC (M. pneumoniae 427a): 125 µg/mL (≈ 350 µM)
MIC (Bacillus subtilis 6633; [9]): 10 µg/mL (≈ 28 µM)
MIC (Staph. aureus Oxford): 2.5 µg/mL (≈ 6.99 µM)
MIC [5]: 2.5 µg/mL (≈ 6.99 µM)
MIC [6]: 1 µg/mL (≈ 2.8 µM)

CC(=CC(=O)N(C)C)CC1OCC(CC2OC2C(C)C(C)O)C(O)C1O (centres unmarked) [Example 4, Dimethylamide of monic acid A]
MIC [1]: 2.5 µg/mL (≈ 6.73 µM)
MIC [2, 8]: 2.5 µg/mL (≈ 6.73 µM)
MIC (M. pneumoniae ATCC 15492): > 10 µg/mL
MIC (M. dispar H225; [12]): 5 µg/mL (≈ 13.5 µM)
MIC (M. fermentans MWKL4): 1.25 µg/mL (≈ 3.36 µM)
MIC [3]: > 10 µg/mL
MIC (M. pulmonis JB): 5 µg/mL (≈ 13.5 µM)
MIC (M. dispar NCTC 10125): 2.5 µg/mL (≈ 6.73 µM)
MIC (Staph. aureus Russell): 25 µg/mL (≈ 67.3 µM)
MIC [4]: 20 µg/mL (≈ 53.8 µM)
MIC (Strep. pneumoniae CN33; [11]): 50 µg/mL (≈ 135 µM)
MIC (M. suipneumoniae Str. 11): 10 µg/mL (≈ 26.9 µM)
MIC (Staph. aureus 152): > 80 µg/mL
MIC (Staph. aureus B4): 20 µg/mL (≈ 53.8 µM)
MIC [7, 13]: 2.5 µg/mL (≈ 6.73 µM)
MIC (Past. haemolytica PA5): 40 µg/mL (≈ 108 µM)
MIC (Bord. bronchiseptica BO9; [14]): 40 µg/mL (≈ 108 µM)
MIC (M. pneumoniae 427a): > 10 µg/mL
MIC (Strep. uberis SPU 1): 20 µg/mL (≈ 53.8 µM)
MIC (Bacillus subtilis 6633; [9]): 25 µg/mL (≈ 67.3 µM)
MIC (Past. multocida PAI; [10]): 5 µg/mL (≈ 13.5 µM)
MIC (Staph. aureus Oxford): 5 µg/mL (≈ 13.5 µM)
MIC [5]: 2.5 µg/mL (≈ 6.73 µM)

CCOC(=O)CCCCCNC(=O)C=C(C)CC1OCC(CC2OC2C(C)C(C)O)C(O)C1O (centres unmarked) [Example 5, 5-Ethoxycarbonylpentylamide of monic acid A]
MIC [1]: 0.05 µg/mL (≈ 0.103 µM)
MIC [2, 8]: 0.5 µg/mL (≈ 1.03 µM)
MIC (M. pneumoniae ATCC 15492): 10 µg/mL (≈ 20.6 µM)
MIC (M. dispar H225; [12]): 0.312 µg/mL (≈ 0.642 µM)
MIC (M. fermentans MWKL4): 0.039 µg/mL (≈ 0.0803 µM)
MIC [3]: 2.5 µg/mL (≈ 5.15 µM)
MIC (M. pulmonis JB): < 0.02 µg/mL
MIC (M. dispar NCTC 10125): 0.156 µg/mL (≈ 0.321 µM)
MIC (Staph. aureus Russell): 50 µg/mL (≈ 103 µM)
MIC [4]: 0.7 µg/mL (≈ 1.44 µM)
MIC (Strep. pneumoniae CN33; [11]): 1 µg/mL (≈ 2.06 µM)
concentration at 5 min (Mouse blood levels; blood, sc, 5 minutes after dosing, 50 mg/kg subcutaneous, mean of 5 experiments, assay Neisseria catarrhalis, read-out: Concentration (blood level)): 22100 ng/mL
concentration at 10 min (Mouse blood levels; blood, sc, 10 minutes after dosing, 50 mg/kg subcutaneous, mean of 5 experiments, assay Neisseria catarrhalis, read-out: Concentration (blood level)): 22600 ng/mL
concentration at 20 min (Mouse blood levels; blood, sc, 20 minutes after dosing, 50 mg/kg subcutaneous, mean of 5 experiments, assay Neisseria catarrhalis, read-out: Concentration (blood level)): 16100 ng/mL
concentration at 0.5 h (Mouse blood levels; blood, sc, 30 minutes after dosing, 50 mg/kg subcutaneous, mean of 5 experiments, assay Neisseria catarrhalis, read-out: Concentration (blood level)): 9100 ng/mL
concentration at 1 h (Mouse blood levels; blood, sc, 60 minutes after dosing, 50 mg/kg subcutaneous, mean of 5 experiments, assay Neisseria catarrhalis, read-out: Concentration (blood level)): < 4000 ng/mL
half-life (Mouse blood levels; sc, 50 mg/kg subcutaneous, blood): 15 min
blood levels compared with pseudomonic acid (Mouse blood levels; subcutaneous dosing): higher and more prolongued than those obtained after subcutaneous dosing of pseudomonic acid
MIC (M. suipneumoniae Str. 11): 1.25 µg/mL (≈ 2.57 µM)
MIC (Staph. aureus 152): 45 µg/mL (≈ 92.7 µM)
MIC (Staph. aureus B4): 11 µg/mL (≈ 22.7 µM)
MIC ([7]; Neisseria, 1502): 0.05 µg/mL (≈ 0.103 µM)
MIC (Past. haemolytica PA5): 11 µg/mL (≈ 22.7 µM)
MIC (Bord. bronchiseptica BO9; [14]): 23 µg/mL (≈ 47.4 µM)
MIC (M. pneumoniae 427a): > 10 µg/mL
MIC (Strep. uberis SPU 1): 0.35 µg/mL (≈ 0.721 µM)
MIC (Bacillus subtilis 6633; [9]): 10 µg/mL (≈ 20.6 µM)
MIC (Past. multocida PAI; [10]): 0.35 µg/mL (≈ 0.721 µM)
MIC (Staph. aureus Oxford): 25 µg/mL (≈ 51.5 µM)

CC(=CC(=O)N1CCOCC1)CC1OCC(CC2OC2C(C)C(C)O)C(O)C1O (centres unmarked) [Example 6, Morpholinyl amide of monic acid A]
MIC [1]: 0.2 µg/mL (≈ 0.484 µM)
MIC ([2]; Haemophilus influenzae, WY21): 0.5 µg/mL (≈ 1.21 µM)
MIC (M. pneumoniae ATCC 15492): > 10 µg/mL
MIC (M. dispar H225): 1.25 µg/mL (≈ 3.02 µM)
MIC (M. fermentans MWKL4): 0.625 µg/mL (≈ 1.51 µM)
MIC [3]: 10 µg/mL (≈ 24.2 µM)
MIC (M. pulmonis JB): 0.156 µg/mL (≈ 0.377 µM)
MIC (M. dispar NCTC 10125): 2.5 µg/mL (≈ 6.05 µM)
MIC (Staph. aureus Russell): 50 µg/mL (≈ 121 µM)
MIC [4]: 2.5 µg/mL (≈ 6.05 µM)
MIC (Strep. pneumoniae CN33; [11]): 10 µg/mL (≈ 24.2 µM)
MIC (M. suipneumoniae Str. 11): 2.5 µg/mL (≈ 6.05 µM)
MIC (Staph. aureus 152): > 80 µg/mL
MIC (Staph. aureus B4): 20 µg/mL (≈ 48.4 µM)
MIC [7, 13]: 5 µg/mL (≈ 12.1 µM)
MIC (Past. haemolytica PA5): 20 µg/mL (≈ 48.4 µM)
MIC (Bord. bronchiseptica BO9; BO9): 20 µg/mL (≈ 48.4 µM)
MIC (M. pneumoniae 427a): > 10 µg/mL
MIC (Strep. uberis SPU 1): 2.5 µg/mL (≈ 6.05 µM)
MIC (Bacillus subtilis 6633; Bacillus subtilis, 6633): 10 µg/mL (≈ 24.2 µM)
MIC (Past. multocida PAI): 0.625 µg/mL (≈ 1.51 µM)
MIC (Staph. aureus Oxford): 10 µg/mL (≈ 24.2 µM)
MIC [5]: 1 µg/mL (≈ 2.42 µM)
